Results from patent US11247998B2, “Piperazine heteroaryl derivative, preparation method therefor and use of same in medicine” (priority 2017, dated 2022).

Experiments:
HepG2 cells = test: Effect on in vitro proliferation of HepG2 cells (CellTiter-Glo); type: cell-based; conditions: HepG2 cells, 72 hours, CellTiter-Glo; read-out: CC50
[1] = Pharmacokinetics assay in rats after intragastrical administration (LC/MS/MS of plasma); type: in vivo; conditions: SD rats, 2 mg/kg
[2] = tested on: HBV DNA replication in HepG2.2.15 cells; test: In vitro anti-HBV activity test (quantitative assay of intracellular HBV DNA), HepG2.2.15 cells, quantitative PCR; type: cell-based, hepatitis B virus (HBV); conditions: HBV DNA by quantitative PCR

SMILES: C[C@H]1Cn2nnc(C(=O)N[C@H](C)C(F)(F)F)c2CN1C(=O)Nc1ccc(F)c(C#N)c1 [Example 45, (S)—N^5-(3-Cyano-4-fluorophenyl)-6-methyl-N^3-((R)-1,1,1-trifluoropropan-2-yl)-6,7-dihydro-[1,2,3]triazolo[1,5-α]pyrazine-3,5(4H)-dicarboxamide]
- CC50 (HepG2 cells): > 100000 nM
- Area under curve AUC [1]: 17162 ± 5791 ng·h/mL
- Bioavailability (%) F % [1]: 110%
- Clearance CLz/F [1]: 2.13 ± 0.73 mL/min/kg
- Half-life T1/2 [1]: 19.2 ± 7.16 h
- Plasma concentration Cmax [1]: 715 ± 187 ng/mL
- Residence time MRT [1]: 27.4 ± 9.5 h
- Emax (effect value of the compound to maximally inhibit HBV DNA replication) [2]: 102%
- EC50 ([2]; compound treatment Day 2 to Day 8): 38 nM
